Laboratory results as given in patent US7264808B2, “Synthetic peptide for neurological disorders” (priority 2000, dated 2007).

B1: V-NGF (protein)
chain: EDHPVHNLGEHSVCDSVSAWVTKTTATDIKGNTVTVMENVNLDNKVYKEYFFETKCKNPNPEPSGCRGIDSSHWNSYCTETDTFIKALTMEGNQASWRFIRIETACVCVITKKKGN

What was measured:
[1] = system: NGF, NT-3 and bFGF; conditions: animals; brain areas associated with memory loss; cited from earlier work
[2] = cited from earlier work
[3] = system: PC12 cells; assay: Neurite outgrowth on PC12 cells; type: cell-based, rat; conditions: for Neurites on PC12: concentration producing neurite outgrowth, read after 72 hours
Method: The trypsin digested fragments in various concentrations were tested for neurite out growth on PC12 cells. Tissue culture plate having 24 wells were seeded with 10^5 PC12 cells in serum free Dulbeco Modified Eagle's medium (DMEM). The results were read after 72 hours for neurite outgrowth. The fraction showing the most neurite outgrowth at the lowest concentration was sequenced for its amino acids composition. Sequencing was contracted out to the Protein Core Laboratory of Baylor College of Medicine, Houston, Tex.

[4] = system: Anti-V-NGF; assay: ELISA titer of specimens with Anti-V-NGF; type: binding; conditions: in comparison to Anti-H-NGF
Method: (§1) Enzyme-Linked Immunosorbent Assay (ELISA): The binding affinity of Anti-ADESH made against ADESH consisting of ten amino acids (AD-10), to various specimens known to contain NGF, such as venoms, body fluids, saliva, serum, urine etc. was studied by ELISA. The ELISA binding of Anti-AD-10 was compared to Anti-NGF made against cobra venom. ELISA tests were performed in 96 well microtiter plate. The wells of the plate were coated with one concentration of antigen, diluted in PBS each well receiving 100 μL. The plate was incubated at room temperature (RT) for 16 to 18 hours after which it was three times (3×) with PBS. The wells of the plate were blocked with 0.25 ml/well of 3% Teleostean gelatin from cold water fish (Sigma) for ½ hour at RT. Anti-AD-10 and Anti-NGFs were diluted threefold in gelatin were added to the appropriate wells of ELISA plate, including positive and negative controls. The plate was incubated at 37° C. for 1 to 1.5 hours. After washing 3X times horseradish peroxidase conjugated with IgG made in goat (Sigma) was added and incubated for 1 hour. Finally, the plate was washed and reacted with O-Phenylenediamine Dihydrochloride (OPD) for color development. The test was after ½ hour for ELISA titers.

[5] = system: Anti-AD-10; assay: ELISA titer of specimens with Anti-AD-10; type: binding, mice; conditions: for ELISA titer Anti-AD-10: Table II, specimen coated
Method: Adult Balb/C mice were used for immunization. The mice were used in compliance with the US Public Health Service Policy on humane care and use of animals. First injection consisted of the mixture 100 μg of each version of ADESH in 0.1 ml mixed with equal volume of Freund's complete adjuvant/mouse. The subsequent injections consisted of the mixture 100 μg of ADESH and equal volume of incomplete Freund's adjuvant/mouse. The mice were injected intramuscularly (IM) six times two weeks apart. At the end of the immunization the mice were bled through the ophthalmic veins and serum was separated.
as §1

[6] = system: PC12 cells; assay: Toxicity to PC12 cells; type: cell-based, rat; conditions: toxic concentration on PC12 cells

Molecule | neurite outgrowth on PC12 cells (in words) [3] | ELISA titer Anti-AD-10 [5] | Neurites on PC12 [3] | Toxicity to PC12 [6] | other results
O=C(CCn1cnc2c(=O)[nH]cnc21)Nc1ccc(C(=O)[O-])cc1.[K+] [AIT-082] | – | – | – | – | activation of genes producing neurotrophic factors in brain [1]: activate multiple genes in animals to produce three different neurotrophic factors; absorption and activity after oral administration [2]: rapidly absorbed and active after oral administration
ADESH: name of the inventive peptides; in b30 the synthetic ADESH consisting of ten amino acids (AD-10) (NLGEHPVCDS) | equally active as the fragment of the native NGF | – | – | – | reaction with Anti-V-NGF (in words) [4]: react poorly
H-NGF saliva: NGF of human origin isolated from saliva | – | 2700 | – | – | –
H-NGF serum: NGF of human origin isolated from serum | – | 2700 | – | – | –
H-NGF urine: NGF of human origin isolated from urine | – | 2700 | – | – | –
N L G E H (NLGEH; SYNTHESIZED. CORRESPONDS TO FRAGMENT 7-11 OF SEQ. ID. NO. 1.) [AD-5, ID; NO: 4, first five amino acids] | biologically active in producing neurite outgrowth | 600 | 2 µg | >100 µg | –
N L G E H P V C D S (NLGEHPVCDS; SYNTHESIZED. SIMILAR TO FRAGMENT 7-16 OF SEQ. ID. NO. 1.) [AD-10] | biologically active in producing neurite outgrowth | 2700 | 1 µg | >100 µg | –
N L G E H P V C D S T D T W V (NLGEHPVCDSTDTWV; SYNTHESIZED. SIMILAR TO FRAGMENT 7-21 OF SEQ ID NO 1 ABOVE.) [AD-15, ID; NO: 2, first fifteen amino acids] | biologically active in producing neurite outgrowth | 1800 | 1 µg | >100 µg | –
B1 | – | 900 | 0.005 µg | 5 µg | reaction with Anti-AD-10 / Anti-ADESH (in words) [5]: react
